# Assay results: patent US20260337177A1, “TEAD CORE INHIBITORS FOR CANCER THERAPEUTICS” (University of Florida Research Foundation, Incorporated, priority 2023, published 2026)
# Key:
# TEAD2-YBD = TEAD2-YBD (Homo sapiens, UniProt Q15562); experiment: Intact protein mass spectrometry, covalent modification of TEAD2-YBD; assay type: binding
# From the text: To substantiate the covalent interaction between Compound 22 and TEAD2-YBD, intact mass spectrometry was employed to monitor the protein's mass change upon binding with the compound.
# Human TEAD2-YBD (217-447) (TEAD2_HUMAN, UniProtKB Q15562) was expressed and purified as previously described.^79 To eliminate endogenous palmitoylation, Cys380Ser mutant (TEAD2-C380S) was generated and purified using the same protocol. [00392]hTEAD2 was expressed, purified, and deacylated as reported.^52 Briefly, the yap-binding domain (YBD) of […] was cloned in pET28a vector with the N terminal 6x His tag. The recombinant protein was induced at 16 ° C using 0.2 mM isopropyl bD-1-thiogalactopyranoside (IPTG) for 10 h for overexpression in Escherichia coli strain BL2 (DE3) CodonPlus competent cells (Invitrogen). Then cells were harvested, followed by lysis and the supernatant was loaded onto the HisTrap FF column (GE Healthcare). The hTEAD4-YBD was eluted with elution buffer (50 mM Hepes 8.0, 300 mM NaCl, 10% Glycerol, 1 mM TCEP, 125 mM imidazole). To eliminate the endogenous fatty acid, the protein was incubated with 0.2 mM hydroxylamine for 2 h and further purified through gel filtration chromatography in the final buffer (25 mM Hepes pH 8.0, 100 mM NaCl, 1 mM TCEP, and 5% glycerol). Collected fractions were concentrated to 5 mg/mL and flash frozen for further use. […]
# AML12 cells = experiment: AML12 normal liver cell growth inhibition (CCK8); assay type: cell-based
# CYR61 = CYR61 mRNA expression by RT-qPCR in Huh7 cells; assay type: cell-based, human; settings: dose-dependent
# Procedure: (§1) Huh7 and HepG2 liver cancer cells were seeded at 1×10^6 cells/dish and allowed to adhere overnight. The cells were then treated with indicated doses of compounds in medium for 24 hours. The cells were then harvested, and total RNA was purified using the Aurum total RNA mini kit (Bio-Rad #732-6820) according to the manufacturer's instructions. Complementary DNA was synthesized from 500 ng total RNA template by iScript reverse transcription kit (Bio-Rad #1725037) according to the manufacturer's instructions. Real-time PCR reactions utilized 60 ng cDNA and PrimePCR primers from Bio-Rad (Unique Assay ID: human GAPDH-qHsaCEP0041396, human CTGF-qHsaCEP0024255, human CYR61-qHsaCEP0024230) designed for SYBR Green gene expression analysis (Bio-Rad #1726270). All reactions were carried out in triplicate using Quant Studio 3 PCR system (Applied Biosystems). Relative gene expression level was quantified via ΔΔCt method by using GAPDH as an endogenous reference.
# CTGF = CTGF mRNA expression by RT-qPCR in Huh7 cells; assay type: cell-based, human; settings: dose-dependent
# Procedure: as §1
# HepG2 cells [1] = experiment: MTT assay, HepG2 survival; assay type: cell-based, human; settings: FIG. 7
# TEADs = experiment: TEAD-specific 8×GTIIC-luciferase reporter assay; assay type: cell-based
# Procedure: A series of compounds featuring a chloromethyl ketone moiety were synthesized (Schemes 1-4). The inhibitory rate of this series of compounds was tested using 8×GTIIC-luciferase reporter assay at 10 μM.
# Next, the inhibition of TEAD transcription activity of compounds was tested varying the dosage using the 8×GTIIC-luciferase reporter assay. […] The aim was to determine whether its inhibition of TEAD transcription can lead to downregulation of the YAP-TEAD target genes. CTGF is one of the best characterized (bona fide) target gene of YAP and TAZ.
# To further investigate the mechanism of the inhibitory effect of compounds in Huh7 cells, TEADs specific luciferase reporter assays were performed with compounds 22 and 12 at several concentrations. […] TEAD downstream gene expression patterns were evaluated in liver cancer cells Huh7, which has been evidenced with relative high expression of YAP and TEAD2.
# HEK 293T cells were plated at 2×10^4 cells/well in a 96 well microplate and were transfected with 50 ng of 8×GTIIC-luciferase plasmid (Addgene #34615) and 0.5 ng of pRL-CMV (Promega #E226A) by using lipofectamine 3000 (Life Technologies #L3000). The 8×GTIIc-luciferase reporter is a Yap/Taz-activity reporter containing eight TEAD consensus binding sequences. After 6 h, transfected cells were treated with various concentrations of compounds or DMSO control. Luciferase signals were measured using the Dual Luciferase Reporter Assay System (Promega, E1960) according to the manufacturer's instructions. Experiments were performed in triplicate and repeated at least three times.
# HepG2 cells [2] = experiment: Apoptosis by calcein AM and ethidium homodimer-1 staining, HepG2; assay type: cell-based, human
# Sequence of TEAD2-YBD (Q15562 217-447): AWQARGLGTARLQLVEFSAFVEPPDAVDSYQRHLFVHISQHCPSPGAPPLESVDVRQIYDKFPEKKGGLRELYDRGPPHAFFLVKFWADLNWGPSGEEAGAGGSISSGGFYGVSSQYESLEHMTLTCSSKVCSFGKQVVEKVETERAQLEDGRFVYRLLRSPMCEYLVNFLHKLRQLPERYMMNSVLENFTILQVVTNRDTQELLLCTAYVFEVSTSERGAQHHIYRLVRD
smiles,measurement,setting,value
"O=C(CCl)c1c[nH]c2cc(Cl)c(OCc3cccc(C(F)(F)F)c3)cc12 [Compound 22, 2-chloro-1-(6-chloro-5-((3-(trifluoromethyl)benzyl)oxy)-1H-indol-3-yl)ethan-1-one]",Labeling of TEAD2-YBD,TEAD2-YBD; 15 hours at room temperature,completely labeled with a single molecule
same,Intact mass shift of TEAD2-YBD,"TEAD2-YBD; excess compound, covalent complex, room temperature",365.5581 Da
same,Toxicity towards normal liver cell line AML12,AML12 cells,least toxic
same,"Inhibitory rate, AML12 (inhibitory percentage of AML12 cell growth)","AML12 cells; 10 μM, 3 days",22.1%
same,"CYR61 mRNA expression, Huh7",CYR61,significantly inhibited
same,"CTGF mRNA expression, Huh7",CTGF,suppressed
same,"CTGF mRNA expression, Huh7",CTGF; listed as compound 22,significantly inhibited
same,"HepG2 survival, MTT assay",HepG2 cells [1],inhibits
same,inhibition at 10 µM,"TEADs; 10 μM, 8×GTIIC-luciferase, read-out: Luciferase reporter assay inhibitory rate",93.6%
same,IC50,"TEADs; dose response, read-out: TEADs transcription inhibition IC50, luciferase reporter assay",2100 nM
same,HepG2 cell apoptosis,HepG2 cells [2],promotes HepG2 cell apoptosis
